Publication PMC11555526, “Development of 2-Aminoadenine-Based Proteolysis-Targeting Chimeras (PROTACs) as Novel Potent Degraders of Monopolar Spindle 1 and Aurora Kinases” (ACS Pharmacology & Translational Science, 2024)

How the values were obtained:
[1] = Plasma stability (LC-ESI-MS); type: in vitro ADME; settings: 37 °C
Experimental: Lastly, to gain a first insight into the stability of the synthesized compounds in a biological system, the stability of one of the degraders was examined at two different pH values and in human plasma (Figures S8 and S9). We chose one of the best degraders of the SF1 series, 20 as it also resembled the best degrader from azareversine series 19 in terms of the linker and E3-binding moiety. All experiments were carried out at 37 °C, and aliquots were analyzed using LC-ESI-MS at predetermined time points. […] We concluded from the stability profile of 20 that it is sufficient for further testing.
First, 250 µg of conjugate 20 were diluted in 5 µL DMSO and the mixture was added to 0.5 mL of human plasma. The mixture was incubated at 37 °C. 50 µL of aliquot was removed at predetermined time points and quenched with 150 µL ice-cold acetonitrile (+0.1% formic acid). Then, the mixture was centrifuged at 10,000 rpm for 10 min. Then, 50 µL of supernatant was added to 50 µL of ultrapure water (+0.1% formic acid) and analyzed by LC-MS. Results are presented as the mean ± SD of three independent experiments. […]

TTK = target: T1, TTK (Homo sapiens, UniProt P33981); assay: Immunoblot of TTK in naive MV4-11 cells; type: cell-based; parameters: endogenous in cells; host or cells: naive MV4-11; settings: 6 h
T1 sequence (P33981 1-857): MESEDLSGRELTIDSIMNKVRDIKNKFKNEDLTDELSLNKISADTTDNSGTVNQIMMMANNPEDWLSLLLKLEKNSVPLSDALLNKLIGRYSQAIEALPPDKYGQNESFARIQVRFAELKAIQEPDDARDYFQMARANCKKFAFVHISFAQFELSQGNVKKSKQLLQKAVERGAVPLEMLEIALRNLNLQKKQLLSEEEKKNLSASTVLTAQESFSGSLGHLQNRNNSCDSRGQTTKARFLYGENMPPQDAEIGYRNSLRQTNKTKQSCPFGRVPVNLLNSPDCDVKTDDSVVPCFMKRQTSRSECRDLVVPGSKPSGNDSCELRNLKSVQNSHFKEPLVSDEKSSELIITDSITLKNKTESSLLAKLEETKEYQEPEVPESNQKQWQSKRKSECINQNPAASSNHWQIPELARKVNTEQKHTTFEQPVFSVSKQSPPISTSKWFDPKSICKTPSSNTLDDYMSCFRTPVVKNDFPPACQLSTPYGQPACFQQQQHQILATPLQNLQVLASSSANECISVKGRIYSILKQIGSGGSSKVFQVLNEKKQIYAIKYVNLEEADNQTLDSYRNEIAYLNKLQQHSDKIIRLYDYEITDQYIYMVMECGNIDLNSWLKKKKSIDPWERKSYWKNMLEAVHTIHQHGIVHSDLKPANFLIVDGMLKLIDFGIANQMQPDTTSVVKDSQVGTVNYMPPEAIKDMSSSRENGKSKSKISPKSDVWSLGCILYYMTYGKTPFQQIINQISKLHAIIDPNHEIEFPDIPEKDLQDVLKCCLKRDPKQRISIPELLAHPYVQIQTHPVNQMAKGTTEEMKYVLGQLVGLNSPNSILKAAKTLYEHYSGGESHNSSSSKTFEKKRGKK
Experimental: The cells were treated with compounds or vehicle for indicated time points and lysed in RIPA lysis buffer (50 mM HEPES pH 7.9, 140 mM NaCl, 1 mM EDTA, 1% Triton X-100, 0.1% SDS, 0.1% sodium deoxycholate) containing protease and phosphatase inhibitors (Sigma) for 20 min at 4 °C. Cell lysates were cleared by centrifugation, and protein concentration was determined with bicinchoninic acid assay. Equal amounts of protein per sample were separated by Bis-Tris-PAGE and transferred to PVDF membranes (Millipore). The membranes were blocked with 5% (w/v) nonfat dry milk in TBS-T [20 mM Tris–HCl, pH 7.5, 150 mM NaCl, 0.1% (v/v) Tween-20] for 1 h at room temperature and incubated with primary antibody at 4 °C overnight. Visualization was carried out using horseradish peroxidase (HRP)-labeled secondary antibodies and detected using a chemiluminescent HRP substrate (Millipore) in LAS3000 or LAS4000 mini (Fujifilm). Vinculin, GAPDH, or B-actin were used as a loading control. The loading control was probed along with the target antibody by cutting the membrane. For targets with similar molecular weights, the samples were run in duplicate and probed with their respective loading controls, although only one control was shown in the figure for all targets. The signal was quantified using ImageJ or Image Studio Lite against the corresponding loading controls. Antibodies used in this study were as follows: Aurora A/AIK (Cell Signaling Technology, 3092), Aurora B (Bethyl Laboratories, A300–431A), TTK (Santa Cruz Biotechnology, sc-56968), GAPDH (Cell Signaling Technology, 2118), B-Actin (Sigma, A5441), and Vinculin (Sigma, V9131).
α GAPDH α Vinculin α B-Actin
Figure S2: Cellular degradation studies of SF1-based compounds. […]
GAPDH was used as a loading control. (E-
Immunoblots of TTK and AURKB. Naive MV4-11 cells were treated with indicated concentration of 44 or 47 G)
(E), 18 (F), and 14 or 20 (G) for 6 h and compared with vehicle treated cells. […]
All HiBiT data are represented as a mean ±s.d. from n=2 replicates. […]

SMILES	half-life (t1/2) in human plasma [1] [h]	relative TTK level (immunoblot quantification, vehicle = 1.00) (TTK; 10 µM)	relative TTK level (immunoblot quantification, vehicle = 1.00) (TTK; 0.01 µM)	relative TTK level (immunoblot quantification, vehicle = 1.00) (TTK; 1 µM)
CC(C)S(=O)(=O)c1ccccc1Nc1nc(Nc2ccc(N3CCN(C(=O)CNC(=O)CCCC(=O)Nc4cccc5c4C(=O)N(C4CCC(=O)NC4=O)C5=O)CC3)cc2)nc2[nH]cnc12 (centres unmarked) [Compound 20]	4.4	–	–	–
CC(C)S(=O)(=O)c1ccccc1Nc1nc(Nc2ccc(N3CCN(C(=O)CCCC(=O)Nc4cccc5c4C(=O)N(C4CCC(=O)NC4=O)C5=O)CC3)cc2)nc2[nH]cnc12 (centres unmarked) [Compound 14]	–	1.16	–	–
Cc1ncsc1-c1ccc(CNC(=O)[C@@H]2C[C@@H](O)CN2C(=O)[C@@H](NC(=O)CCCC(=O)N2CCN(c3ccc(Nc4nc(Nc5ccccc5S(=O)(=O)C(C)C)c5nc[nH]c5n4)cc3)CC2)C(C)(C)C)cc1 [Compound 44]	–	0.67	1.00	1.00
